What all share (type): biochemical
For one assay, the target named is T1, ABL (Homo sapiens, UniProt P00519).
T1 construct: purchased Life Technologies P3049
Description: Kinase selectivity profiling (focused panel), radioactive filter plate assay: ABL. As to conditions: PolyGT substrate, 0.5 μM ATP, 60 min. Here is the method: (§1) The purpose of this assay is to determine the activity and selectivity of a compound of the invention on a selected range of human kinases which may result in undesirable side-effects when inhibited (Dy & Adjei 2013; Force & Kolaja 2011).
(§2) The IC50 value for off-target kinases is determined in radioactive filter plate assays. The principle of the assays consists in the measurement of incorporated ^33P into a peptide substrate upon phosphorylation by the kinase enzyme using [γ-^33P]ATP and ATP. Unincorporated ^33P is removed by loading the samples on a filter plate (using a harvester, PerkinElmer) and 6 subsequent washing steps. Incorporated ^33P in the peptide substrate is measured by a scintillation counter (Topcount, PerkinElmer) after addition of MicroScint™-20 (PerkinElmer, 6013621) to the filter plates.
(§3) 5 μL of a water dilution series of test compound (starting from 20 μM or 6.6 μM highest concentration), from a 100% DMSO stock solution, 1/5 dilution, is added to the wells (final DMSO concentration of 1% in reaction assay). Enzyme and peptide substrate are used at optimized concentrations (cf. Table VI). The enzyme and substrate are diluted in assay buffer to a total volume of 11 μL. The reaction is started by addition of 9 μL of ATP+[γ-^33P]ATP, diluted in the same buffer as enzyme and substrate. The mixture is incubated at 30° C. The reaction is terminated by adding 25 μL of 150 mM phosphoric acid. Samples are transferred to filter plates and incorporated radioactivity is measured using a scintillation counter.
(§4) The incubation time, assay buffer composition, and concentrations of ATP, enzyme and substrate are reported in Table VI for example kinase off-target assays.
(§5) 10 μM staurosporine (1% DMSO) is used as positive control (100% inhibition); vehicle (water+1% DMSO) as negative control (0% inhibition).

Another assay concerns the target T2, Aurora B (Homo sapiens, UniProt Q96GD4).
T2 construct: purchased Carna BioSciences 05-102
Description: Kinase selectivity profiling (focused panel), radioactive filter plate assay: Aurora B. As to conditions: Histone H3 peptide, 1.3 μM ATP, 90 min. As for the experimental part: as §1, §2
5 μL of a water dilution series of test compound (starting from 20 μM or 6.6 μM highest concentration), from a 100% DMSO stock solution, 1/5 dilution, is added to the wells (final DMSO concentration of 1% in reaction assay). Enzyme and peptide substrate are used at optimized concentrations (cf. Table VI). The enzyme and substrate are diluted in assay buffer to a total volume of 11 μL. […] Samples are transferred to filter plates and incorporated radioactivity is measured using a scintillation counter. […]

In the next assay the target is T3, c-SRC (Homo sapiens, UniProt P12931).
T3 construct: purchased Carna Biosciences 08-173
T3 sequence (P12931 whole entry): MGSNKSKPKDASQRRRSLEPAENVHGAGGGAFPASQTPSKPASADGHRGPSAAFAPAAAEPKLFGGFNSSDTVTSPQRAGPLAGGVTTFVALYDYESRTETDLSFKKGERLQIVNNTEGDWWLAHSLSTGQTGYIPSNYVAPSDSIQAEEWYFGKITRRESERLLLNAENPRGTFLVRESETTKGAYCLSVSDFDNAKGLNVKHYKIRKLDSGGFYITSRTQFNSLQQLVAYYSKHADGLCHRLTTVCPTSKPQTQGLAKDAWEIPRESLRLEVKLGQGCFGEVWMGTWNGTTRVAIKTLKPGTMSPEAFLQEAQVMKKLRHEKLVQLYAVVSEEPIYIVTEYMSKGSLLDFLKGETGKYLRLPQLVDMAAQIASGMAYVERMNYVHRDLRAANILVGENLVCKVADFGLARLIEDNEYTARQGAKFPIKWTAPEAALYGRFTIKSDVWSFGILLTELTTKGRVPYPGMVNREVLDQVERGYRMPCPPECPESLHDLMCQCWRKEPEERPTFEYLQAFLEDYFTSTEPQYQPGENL
Description: Kinase selectivity profiling (focused panel), radioactive filter plate assay: c-SRC. Conditions: PolyGT substrate, 0.25 μM ATP, 60 min. Here is the method: as §1, §2, §3, §4, §5

Each structure is given as a SMILES string. pIC50: −log10 of the molar value.

In general, pIC50 refers to the IC50 on a negative log10 scale, so that one unit is a factor of ten.

T2 sequence (Q96GD4 whole entry): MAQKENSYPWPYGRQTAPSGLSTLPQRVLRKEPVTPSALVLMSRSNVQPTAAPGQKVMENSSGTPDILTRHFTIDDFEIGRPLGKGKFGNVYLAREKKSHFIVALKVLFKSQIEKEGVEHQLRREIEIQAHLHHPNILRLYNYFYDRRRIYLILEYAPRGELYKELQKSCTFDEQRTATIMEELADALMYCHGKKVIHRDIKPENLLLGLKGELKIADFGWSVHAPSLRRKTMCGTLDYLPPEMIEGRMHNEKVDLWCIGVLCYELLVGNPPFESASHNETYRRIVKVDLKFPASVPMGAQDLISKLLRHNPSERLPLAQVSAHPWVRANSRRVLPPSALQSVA
T2 sequence (Q9NQS7 803-918 partner limits assumed): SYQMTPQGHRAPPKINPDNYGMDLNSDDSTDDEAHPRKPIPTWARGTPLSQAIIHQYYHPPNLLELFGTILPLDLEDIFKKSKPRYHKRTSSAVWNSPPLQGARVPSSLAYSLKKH
T1 sequence (P00519 whole entry): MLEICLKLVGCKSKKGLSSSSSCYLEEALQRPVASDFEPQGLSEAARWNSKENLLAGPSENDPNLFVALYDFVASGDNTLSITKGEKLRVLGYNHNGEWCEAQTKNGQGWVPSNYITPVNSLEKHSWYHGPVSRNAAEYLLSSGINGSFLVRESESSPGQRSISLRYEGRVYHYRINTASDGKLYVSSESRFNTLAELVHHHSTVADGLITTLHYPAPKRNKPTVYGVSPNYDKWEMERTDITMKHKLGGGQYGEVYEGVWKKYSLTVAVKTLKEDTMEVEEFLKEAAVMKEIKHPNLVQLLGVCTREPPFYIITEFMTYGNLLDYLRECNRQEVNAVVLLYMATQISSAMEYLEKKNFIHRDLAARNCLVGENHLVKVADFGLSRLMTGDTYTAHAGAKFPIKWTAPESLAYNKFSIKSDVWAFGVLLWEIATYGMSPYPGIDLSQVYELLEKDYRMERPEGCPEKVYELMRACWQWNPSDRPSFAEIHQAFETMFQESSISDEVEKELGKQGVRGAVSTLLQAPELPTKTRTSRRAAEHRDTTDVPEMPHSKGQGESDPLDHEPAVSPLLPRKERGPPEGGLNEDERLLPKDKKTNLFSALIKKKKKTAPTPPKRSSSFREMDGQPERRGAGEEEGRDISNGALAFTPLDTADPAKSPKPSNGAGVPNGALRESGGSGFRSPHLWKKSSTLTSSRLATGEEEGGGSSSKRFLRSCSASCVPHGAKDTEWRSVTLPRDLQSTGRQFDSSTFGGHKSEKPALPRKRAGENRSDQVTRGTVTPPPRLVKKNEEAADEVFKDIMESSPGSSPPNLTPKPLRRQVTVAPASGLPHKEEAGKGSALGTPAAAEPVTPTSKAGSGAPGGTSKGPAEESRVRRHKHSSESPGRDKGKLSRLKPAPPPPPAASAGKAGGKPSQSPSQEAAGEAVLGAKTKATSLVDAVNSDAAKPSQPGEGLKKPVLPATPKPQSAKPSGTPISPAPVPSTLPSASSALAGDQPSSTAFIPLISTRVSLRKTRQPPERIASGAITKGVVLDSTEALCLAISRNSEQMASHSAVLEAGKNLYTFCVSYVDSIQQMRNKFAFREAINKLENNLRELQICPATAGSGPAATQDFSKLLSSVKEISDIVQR

Take `C[C@]1(O)CC[C@@H](Nc2nc3c(cc2OCCOCCO)ncn3-c2ccc(C#N)cn2)CC1` [Compound 12, 6-[6-[2-(2-hydroxyethoxy)ethoxy]-5-[((cis-1,4)-4-hydroxy-4-methylcyclohexyl)amino]imidazo[4,5-b]pyridin-3-yl]pyridine-3-carbonitrile]: the pIC50 at ABL is 6.86; at Aurora B, under 5.73; at c-SRC, 6.32.

For `N#Cc1ccc(-n2cnc3cc(OCCOCCO)c(NC4CCOCC4)nc32)nc1` [Compound 1, 6-[6-[2-(2-hydroxy-ethoxy)-ethoxy]-5-(tetrahydro-pyran-4-ylamino)-imidazo[4,5-b]pyridin-3-yl]-nicotinonitrile], the pIC50 at c-SRC is under 5.88.

Values taken from US10508111B2, “6-[5-amino-6-(2-ethoxyethoxy)-imidazo[4,5-B]pyridin-3-yl]-nicotinonitrile derivatives and their use as IRAK inhibitors” (GALAPAGOS NV, priority 2015, dated 2019).
